Reference: US6228602A, “Competitive apo-peroxidase assay” (Bayer Corporation, priority 1999, dated 2001)
Blank lines part the entries; values can stand above or below the molecule they belong to.

Key:
[1] = Metal porphyrin study: metal porphyrin in water without apo-enzyme (Example IV); format: biochemical; details: HEMASTIX no lepidine/pH 7.5
Protocol: (§1) In this example, other metal porphyrins were tested for their ability to reactivate different types of apo-peroxidases. Metals such as Fe, Cu, Mg, Zn, Ni, Mn, Co and Pd were complexed to hematin and added to the peroxidase detecting agent. Metals such as Mn, Fe, Cu and Co and porphyrins other than hematin, i.e. deuteroporphyrin and coproporphyrin were also shown to provide the desired response.

apo-POD [2] = molecular target: T1, apo-POD (Armoracia rusticana, UniProt P00433); assay: Metal porphyrin study: reactivation of apo-peroxidase (Example IV); format: biochemical, horse radish; details: for % R @ 90 second read time on CLINITEK-200+, mean: 12 μM apo-POD, HEMASTIX no lepidine/pH 7.5
T1 construct: purchased Sigma Chemical Company, St. Louis, Mo
T1 sequence (P00433 31-353): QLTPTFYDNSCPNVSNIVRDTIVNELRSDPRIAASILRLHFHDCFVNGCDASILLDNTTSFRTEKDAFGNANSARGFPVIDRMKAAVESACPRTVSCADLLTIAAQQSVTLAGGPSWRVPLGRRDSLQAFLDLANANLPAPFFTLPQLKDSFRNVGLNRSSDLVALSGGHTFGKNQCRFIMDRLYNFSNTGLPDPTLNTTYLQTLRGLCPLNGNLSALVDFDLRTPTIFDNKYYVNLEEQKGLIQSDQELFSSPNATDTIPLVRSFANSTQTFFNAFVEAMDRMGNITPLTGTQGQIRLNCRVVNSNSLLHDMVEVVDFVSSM
Protocol: as §1

Apoglucose oxidase = details: apoglucose oxidase and FAD; U.S. Pat. No. 4,493,890; read-out: binding constant; cited from earlier work
apo-POD [3] = molecular target: T1, apo-POD; assay: Interference study with peroxidase detecting dry reagent (Example III); format: biochemical, horse radish
Protocol: In this example, a peroxidase detecting dry reagent with resistance to 0.81 mg/dL hemoglobin (or myoglobin) and 25 mg/dL ascorbate and sufficient sensitivity to detect apo-peroxidase reactivation was used. […]
The reagent was tested by dipping it into solutions containing the interfering substance with and without Fe hematin. […]

apo-Hb = molecular target: T2, apo-Hb (Homo sapiens, UniProt P68871+P69905); assay: Metal porphyrin study: reactivation of apo-hemoglobin (Example IV); format: biochemical; details: 12 μM apo-Hb, 12 μM metal porphyrin, HEMASTIX no lepidine/pH 7.5
T2 construct: made in house
Protocol: as §1
A 0.7% solution of hemoglobin was lowered to pH 1.5 and the resulting solution was ultrafiltered through a 10 KDa cutoff membrane followed by several changes of water. Filtered material was reconstituted into water. The apo-hemoglobin passed […]. […] It produced a HEMASTIX® result of +++++ indicating a high concentration of hemoglobin.

apo-peroxidase = molecular target: T3, apo-peroxidase (Armoracia rusticana, UniProt P00433); assay: Proximity effect: antibody binding of hematin-antigen conjugate prevents apo-enzyme reactivation (Example II); format: biochemical, horse radish; details: for Reagent Response (% R @ 30 Sec) @ 660 nm: 36 nM apo-peroxidase, 36 nM antigen-hematin, 36 nM antibody
T3 construct: purchased Sigma Chemical Company, St. Louis, Mo
T3 sequence (P00433 31-353): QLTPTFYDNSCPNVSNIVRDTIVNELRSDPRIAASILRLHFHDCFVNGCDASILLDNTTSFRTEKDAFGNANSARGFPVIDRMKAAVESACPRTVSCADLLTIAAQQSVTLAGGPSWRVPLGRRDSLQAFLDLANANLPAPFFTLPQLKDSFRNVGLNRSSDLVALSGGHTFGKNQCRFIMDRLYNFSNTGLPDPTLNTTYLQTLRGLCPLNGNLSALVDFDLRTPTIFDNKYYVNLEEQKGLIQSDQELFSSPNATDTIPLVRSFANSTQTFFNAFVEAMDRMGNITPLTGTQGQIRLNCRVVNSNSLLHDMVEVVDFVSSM
Protocol: A 10 μL sample of hematin-BJP^1 (3.6 μM, 8.61 mg/dL in phosphate buffered saline), anti-BJP (3.6 μM, 52.56 mg/dL in PBS) and BJP (3.6 μM, 8.28 mg/dL in phosphate buffered saline) were mixed with 10 μL apo-POD (3.6 μM, 14.0 mg/dL in phosphate buffered saline) and […] phosphate buffered saline. The solution was incubated for 5 to 10 minutes at room temperature and the response to HEMASTIX® reagent dipped in the test solution was measured using a CLINITEK®-200 instrument. The response of HEMASTIX® reagent with the phosphate buffered saline solution containing hematin alone was 65.7% reflectance at 1 minute. Sheep anti-human BJP monoclonal antibody was obtained from The Binding Site Limited of Birmingham, England.
In this example, antibody binding of the hematin-antigen conjugate is shown to prevent apo-enzyme reactivation (Table 4). The data set out in Table 4 were generated by using the HEMASTIX® formula with lepidine but lacking apo-peroxidase, antigen-hematin antigen and antibody. The later were mixed in solution and reagent strips with the modified HEMASTIX® formula were immediately dipped into the solution and read using a CLINITEK™-200+ reflectance spectrometer.

apo-POD [4] = molecular target: T1, apo-POD; assay: Detection limit study: peroxidase activity / apo-POD reactivation read with HEMASTIX reagent (Example I); format: biochemical, horse radish; details: 3.6 nM
Protocol: In this example apo-peroxidase is compared to hematin and hematin-antigen conjugates to determine the detectable concentrations and effects of conjugation and antigen molecular weight on apo-enzyme reactivations. Solutions containing combinations of apo-POD, Fe^+3 hematin and hematin conjugate were tested for peroxidase activity. Peroxidase activity was measured in urine using HEMASTIX® reagent as set out in Table 3. This reagent is similar to that set out in Table 1 but lacking the metal porphyrin conjugate, competitive binder and apo-peroxidase while containing lepidine as an activator.
A 10 μL portion of hematin (3.6 μM, 0.23 mg/dL in phosphate buffered saline) or a 10 μL hematin-BJP allotment (3.6 μM, 8.61 mg/dL in phosphate buffered saline) was mixed with 10 μL apo-POD (3.6 μM, 14.0 mg/dL in phosphate buffered saline) all in 980 μL of phosphate buffered saline and then diluted to the desired concentration with additional phosphate buffered saline. The solution was incubated for 1 minute at 40° C. or at room temperature. The response of HEMASTIX® reagent dipped into the test solution was measured on a CLINITEK™-200 reflectance instrument. The response of the reagent set out in Table 1 on the phosphate buffered solution alone was 65.2% reflectance at 1 minute.
Apo-horse radish peroxidase was obtained from Sigma Chemical Company of St. Louis, Mo. The phosphate buffered solution was prepared by adding 0.69 g monobasic sodium phosphate, 0.71 g of dibasic sodium phosphate and 0.45 g of sodium chloride to 100 mL of water.
The HEMASTIX® reagent referred to earlier with the addition of lepidine and at a lower pH when compared to the formula of Table 1 was applied to the strip in a two dip system of the following composition and used in Examples I to IV (Table 3).

apo-POD [5] = molecular target: T1, apo-POD; assay: as above; format: biochemical, horse radish; details: 1 minute @ 30° C.

T2 sequence (P69905 2-142 limits assumed): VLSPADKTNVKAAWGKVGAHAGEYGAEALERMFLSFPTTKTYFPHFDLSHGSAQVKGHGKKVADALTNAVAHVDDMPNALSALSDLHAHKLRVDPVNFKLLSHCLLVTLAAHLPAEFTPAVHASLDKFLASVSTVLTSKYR
T2 sequence (P68871 2-147 limits assumed): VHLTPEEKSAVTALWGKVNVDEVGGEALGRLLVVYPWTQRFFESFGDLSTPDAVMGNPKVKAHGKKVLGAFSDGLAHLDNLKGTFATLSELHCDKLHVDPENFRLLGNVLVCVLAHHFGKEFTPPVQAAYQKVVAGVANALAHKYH

% R @ 90 second read time on CLINITEK-200+, mean ([1]; 120 μM metal porphyrin): 73.7 % R | % R @ 90 second read time on CLINITEK-200+, mean (apo-POD [2]; 120 μM metal porphyrin): 57.2 % R
SMILES: CC1=Cc2cc3[n-]c(cc4nc(cc5[n-]c(cc1n2)cc5C)C(C)=C4CCC(=O)O)c(CCC(=O)O)c3C.[Cu+2] [Cu deuteroporphyrin]
response / activity with apo-peroxidase (in words) (apo-POD [2]; metal porphyrin study): responses similar to those obtained for Fe

SMILES: Cc1cc2nc3c(=O)[nH]c(=O)nc-3n(C[C@H](O)[C@H](O)[C@H](O)COP(=O)(O)OP(=O)(O)OC[C@H]3O[C@@H](n4cnc5c(N)ncnc54)[C@H](O)[C@@H]3O)c2cc1C [FAD, flavin adenine dinucleotide]
Kd (Apoglucose oxidase): ~0.1 nM

% R @ 90 second read time on CLINITEK-200+, mean ([1]; 12 μM metal porphyrin): 71.5 % R | % R response, mean (apo-POD [3]; +3.6 μM Fe Hematin, HEMASTIX (lepidine/pH 6.3), Water): 8.8% | % R response, mean (apo-POD [3]; +3.6 μM Fe Hematin, HEMASTIX (no lepidine/pH 7.5), Water): 79.2% | % R response, mean (apo-POD [3]; +12 μM Fe Hematin/12 μM apo-POD, HEMASTIX (lepidine/pH 6.3), Water): 4.1% | % R response, mean (apo-POD [3]; +12 μM Fe Hematin/12 μM apo-POD, HEMASTIX (no lepidine/pH 7.5), 25 mg/dL Ascorbic): 55.3% | % R response, mean (apo-POD [3]; +12 μM Fe Hematin/12 μM apo-POD, HEMASTIX (no lepidine/pH 7.5), Water): 54.0% | % R response, mean (apo-POD [3]; +12 μM Fe Hematin, HEMASTIX (lepidine/pH 6.3), 25 mg/dL Ascorbic): 5.3% | % R response, mean (apo-POD [3]; +12 μM Fe Hematin, HEMASTIX (lepidine/pH 6.3), Water): 6.4% | % R response, mean (apo-POD [3]; +12 μM Fe Hematin, HEMASTIX (no lepidine/pH 7.5), 25 mg/dL Ascorbic): 73.2% | % R response, mean (apo-POD [3]; +12 μM Fe Hematin, HEMASTIX (no lepidine/pH 7.5), Water): 72.4% | % R response, mean (apo-POD [3]; +36 μM Fe Hematin, HEMASTIX (lepidine/pH 6.3), Water): 3.1% | % R @ 90 second read time on CLINITEK-200+, mean (apo-POD [2]; 12 μM metal porphyrin): 50.9 % R | % R @ 90 second read time on CLINITEK-200+, mean (apo-Hb): 45.3 % R
SMILES: C=CC1=C(C)c2cc3[n-]c(cc4[n-]c(cc5nc(cc1n2)C(C)=C5C=C)c(C)c4CCC(=O)O)c(CCC(=O)O)c3C.O.[Fe+2] [Fe Hematin]

% R @ 90 second read time on CLINITEK-200+, mean ([1]; 12 μM metal porphyrin): 72.2 % R | % R @ 90 second read time on CLINITEK-200+, mean (apo-POD [2]; 12 μM metal porphyrin): 56.1 % R | % R @ 90 second read time on CLINITEK-200+, mean (apo-Hb): 49.2 % R
SMILES: CC1=Cc2cc3[n-]c(cc4nc(cc5[n-]c(cc1n2)cc5C)C(C)=C4CCC(=O)O)c(CCC(=O)O)c3C.[Fe+2] [Fe deuteroporphyrin]

% R @ 90 second read time on CLINITEK-200+, mean ([1]; 120 μM metal porphyrin): 74.4 % R | % R @ 90 second read time on CLINITEK-200+, mean (apo-POD [2]; 120 μM metal porphyrin): 70.9 % R
SMILES: CC1=Cc2cc3[n-]c(cc4nc(cc5[n-]c(cc1n2)cc5C)C(C)=C4CCC(=O)O)c(CCC(=O)O)c3C.[Mg+2] [Mg deuteroporphyrin]

Reagent Response (% R @ 30 Sec) @ 660 nm (apo-peroxidase; 24 nM antigen): 21.3 % R | Reagent Response (% R @ 30 Sec) @ 660 nm (apo-peroxidase; free antigen none): 23.6 % R | prevention of apo-enzyme reactivation by antibody (in words) (apo-peroxidase; antigen-hematin plus antibody): did not prevent apo-enzyme reactivation
SMILES: Cc1cc(C)nc(NS(=O)(=O)c2ccc(N)cc2)n1 [Sulfamethazine]

% R @ 90 second read time on CLINITEK-200+, mean ([1]; 120 μM metal porphyrin): 71.3 % R | % R @ 90 second read time on CLINITEK-200+, mean (apo-POD [2]; 120 μM metal porphyrin): 70.7 % R
SMILES: CC1=Cc2cc3[n-]c(cc4nc(cc5[n-]c(cc1n2)cc5C)C(C)=C4CCC(=O)O)c(CCC(=O)O)c3C.[Zn+2] [Zn deuteroporphyrin]

peroxidase activity (in words) (apo-POD [4]; in the presence of apo-POD): detectable at 3.6 nM | peroxidase activity (in words) (apo-POD [4]; without partner): not detectable | response of HEMASTIX reagent, % reflectance (apo-peroxidase; phosphate buffered saline solution containing hematin alone, 1 minute): 65.7 % reflectance | Mean % Reflectance @ 660 nm (apo-POD [5]; 3.6 nM, antigen IgG, hematin, antigen-hematin or apo-POD alone (Cases A, B, E)): 64.9% | Mean % Reflectance @ 660 nm (apo-POD [5]; 3.6 nM, antigen IgG, with apo-POD (Cases C, D)): 46.3% | Mean % Reflectance @ 660 nm (apo-POD [5]; (3.6 nM; antigen Sulfmethazine), hematin, antigen-hematin or apo-POD alone (Cases A, B, E)): 63.4% | Mean % Reflectance @ 660 nm (apo-POD [5]; (3.6 nM; antigen Sulfmethazine), with apo-POD (Cases C, D)): 48.9% | Mean % Reflectance @ 660 nm (apo-POD [5]; (3.6 mM; antigen BJP), hematin, antigen-hematin or apo-POD alone (Cases A, B, E)): 65.1% | Mean % Reflectance @ 660 nm (apo-POD [5]; (3.6 mM; antigen BJP), with apo-POD (Cases C, D)): 55.3%
SMILES: C=CC1=C(C)c2cc3[n-]c(cc4[n-]c(cc5nc(cc1n2)C(C)=C5C=C)c(C)c4CCC(=O)O)c(CCC(=O)O)c3C.O.[Fe+2] [hematin]
